Measurements from patent US20160115540A1, “PRODRUGS AND DRUGS” (Biogen MA Inc., priority 2013, published 2016).
Structures can show the parent of a compound that is named as a salt.

Tested on: spleen
Assay: Transcriptional profiling, multi-dosing regimen, naïve mice: spleen
Assay type: in vivo
Conditions: for Number of differentially expressed genes identified: Spleen: Table 13: Naïve, Single Dose (so in the source), 12 h after last dosing
Method: In vivo, DMF is rapidly metabolized to monomethyl fumarate (MMF). […] Animals were exposed to CO2 and whole blood collected via cardiac puncture. Two 100 μl aliquots of whole blood were collected in 1.5 mL microcentrifuge tubes and snap frozen in liquid nitrogen. Peripheral (liver, spleen, kidney and jejunum) and CNS brain (cerebellum, hippocampus, striatum and cortex) tissues were harvested and snap frozen in liquid nitrogen, with special care taken to collect tissues of similar size and from the same location. All samples were stored at -80° C. until RNA extraction was conducted. For RNA preparation, frozen tissues were placed in 2 mL RNAse-free 96-well blocks with 1.5 mL QIAzol Lysis Reagent (QIAgen) and a 3.2 mm stainless steel bead (BioSpec Products, Bartlesville, Okla.). Tissues were disrupted for four cycles of 45 seconds in a Mini-Beadbeater (Biospec Products). RNA was extracted in chloroform and the aqueous phase was mixed with an equal volume of 70% ethanol. Extracted RNA was applied to RNeasy 96 plates and purified by the spin method according to the manufacturer's protocol (RNeasy 96 Universal Tissue Protocol, QIAgen, Hilden Germany). […] Two micrograms of biotin labeled […] probe were hybridized to Affymetrix GeneChip Affymetrix HT_MG-430_PM plate arrays with modified conditions as described in […] et al. Washing and staining of the hybridized arrays were completed as described in the GeneChip Expression analysis technical manual for HT plate arrays using the Genechip® Array Station (Affymetrix, Santa Clara, Calif.) with modifications as described in […] et al. The processed GeneChip® plate arrays were scanned using GeneTitan scanner (Affymetrix, Santa Clara, Calif.). Affymetrix scans were subject to quality control (QC) measures. These tests included a visual inspection of the distribution of raw signal intensities and an assessment of RNA degradation, relative log expression (RLE), and normalized unsealed standard error (NUSE). All sample scans that passed these QC metrics were included in the analysis. All CEL files were subjected to GC-content-based Robust Multi-array Average (GCRMA) normalization (version 2.20.0) (Irizarry R A, et al. Nucleic Acids Res 2003; 31:e15; Li C, et al. […] Stat Appl Genet Mol Biol 2004; 3:Article3). […] Springer Science+Business Media 2005). Changes in gene expression were studied by applying a linear modeling approach to fit gene expression levels according to the defined groups of samples (e.g. DMF-, MMF-, and Vehicle-treated animals) and Bayesian posterior error analysis as implemented by Smyth (Smyth G K. Stat Appl Genet Mol Biol 2004; 3:Article3). The comparisons considered included: DMF-vs-MMF, DMF-vs-Vehicle, and MMF-vs-Vehicle. […] Very few DEGs are observed in blood and tissues derived from the central nervous system (brain, cerebellum, cortex, striatum, and spinal cord).

[1] = SPLEEN, 100DMF-vs-100MMF, naïve multidose
[2] = SPLEEN, 100DMF-vs-Veh, naïve multidose
[3] = SPLEEN, 100MMF-vs-Veh, naïve multidose

COC(=O)/C=C/C(=O)OC [DMF, dimethyl fumarate]
FC 4931431B13Rik (1430416_PM_at) [1]: 2.18
FC AU015536 (1445025_PM_at) [1]: 1.55
FC Adap2 (1425639_PM_at) [1]: 1.60
FC Agtr1a (1436739_PM_at) [1]: 1.61
FC Ano1 (1426571_PM_at) [1]: 1.70
FC Ano1 (1459713_PM_s_at) [1]: 1.55
FC Apoc1 (1417561_PM_at) [1]: 1.74
FC Ccbe1 (1439327_PM_at) [1]: 2.07
FC Ccdc80 (1424187_PM_at) [1]: 1.74
FC Ccl3 (1419561_PM_at) [1]: 1.81
FC Ccl6 (1420249_PM_s_at) [1]: 1.88
FC Ccr3 (1422957_PM_at) [1]: 2.25
FC Cd300ld (1424832_PM_at) [1]: 1.82
FC Cdr2l (1445027_PM_at) [1]: 1.57
FC Clec4n (1419627_PM_s_at) [1]: 1.52
FC Clec4n (1425951_PM_a_at) [1]: 1.83
FC Dmd (1417307_PM_at) [1]: 1.59
FC Ear1 (1421802_PM_at) [1]: 3.89
FC Ear1 /// Ear12 /// Ear2 /// Ear3 (1422411_PM_s_at) [1]: 1.79
FC Ear2 (1449846_PM_at) [1]: 1.51
FC Ear3 (1422412_PM_x_at) [1]: 1.80
FC Emr4 (1424998_PM_at) [1]: 1.77
FC Ercc61 (1424766_PM_at) [1]: −1.66
FC Fam63a (1438321_PM_x_at) [1]: −1.52
FC Fcgr1 (1417876_PM_at) [1]: 1.61
FC Fcna (1418243_PM_at) [1]: 1.57
FC Hs6st2 (1450047_PM_at) [1]: 1.64
FC Kcnj16 (1435094_PM_at) [1]: 1.69
FC Klrb1a (1450296_PM_at) [1]: 1.78
FC Lphn3 (1458742_PM_at) [1]: 1.60
FC Ncr1 (1422089_PM_at) [1]: 1.54
FC Niacr1 (1419721_PM_at) [1]: 1.65
FC P2ry12 (1431724_PM_a_at) [1]: 1.66
FC Pla2g7 (1430700_PM_a_at) [1]: 1.51
FC Ptplad2 (1450967_PM_at) [1]: 1.56
FC Rab31 (1431691_PM_a_at) [1]: 1.73
FC Rnf144b (1425282_PM_at) [1]: 1.86
FC Skiv2l (1422584_PM_at) [1]: −1.52
FC St18 (1455123_PM_at) [1]: 1.75
FC Sult1a1 (1427345_PM_a_at) [1]: 1.51
FC Tmem26 (1434583_PM_at) [1]: 1.57
FC Ubn2 (1430056_PM_at) [1]: −1.62
FC Vcam1 (1415989_PM_at) [1]: 1.50
FC Vcam1 (1436003_PM_at) [1]: 1.62
FC Vcam1 (1451314_PM_a_at) [1]: 1.61
FC Vnn3 (1420723_PM_at) [1]: 1.54
FC probe 1420250_PM_at (no gene symbol) [1]: 1.50
FC probe 1421534_PM_at (no gene symbol) [1]: 1.57
FC probe 1429277_PM_at (no gene symbol) [1]: 1.59
FC probe 1442323_PM_at (no gene symbol) [1]: −1.55
FC probe 1444189_PM_at (no gene symbol) [1]: 1.71
FC probe 1445379_PM_at (no gene symbol) [1]: −1.51
FC Aox1 (1419435_PM_at) [2]: 1.66
FC Gsta3 (1423436_PM_at) [2]: 1.86
FC Gstm1 (1416416_PM_x_at) [2]: 1.57
FC Gstm1 (1448330_PM_at) [2]: 1.61
Number of differentially expressed genes identified: Spleen (100 mpk DMF-vs-90 mpk MMF): 52
Number of differentially expressed genes identified: Spleen (100 mpk DMF-vs-Vehicle): 4
CCR3, Klrb1c, NCR1 and CCL3L1 expression (downstream of IL2), DMF vs MMF (spleen, multi-dosed naïve mice): up-regulated
FCGR1A, ST18, CCL3L1 and VCAM1 expression (downstream of NFkB), DMF vs MMF (spleen, multi-dosed naïve mice): up-regulated

COC(=O)/C=C/C(=O)O [MMF, monomethyl fumarate]
FC 4931431B13Rik (1430416_PM_at) [3]: −1.94
FC 5430404G13Rik (1453540_PM_at) [3]: −1.55
FC 5730403M16Rik (1434343_PM_at) [3]: 1.51
FC Ccdc80 (1424187_PM_at) [3]: −1.64
FC Ccl3 (1419561_PM_at) [3]: −1.82
FC Ccr3 (1422957_PM_at) [3]: −2.37
FC Cd300ld (1424832_PM_at) [3]: −1.85
FC Clec4a2 (1422013_PM_at) [3]: −1.50
FC Clec4a2 (1425406_PM_at) [3]: −1.64
FC Clec4a3 (1429954_PM_at) [3]: −1.58
FC Clec4n (1425951_PM_a_at) [3]: −1.81
FC Csmd3 (1438272_PM_at) [3]: −1.80
FC Defb1 (1419491_PM_at) [3]: 1.55
FC Dmd (1417307_PM_at) [3]: −1.56
FC Ear3 (1422412_PM_x_at) [3]: −1.73
FC Emr4 (1424998_PM_at) [3]: −1.75
FC Fam63a (1438321_PM_x_at) [3]: 1.54
FC Fcgr1 (1417876_PM_at) [3]: −1.84
FC Fgfrl1 /// LOC100046239 (1447878_PM_s_at) [3]: 1.53
FC Gzma (1417898_PM_a_at) [3]: −1.64
FC Hpgds (1421492_PM_at) [3]: −1.55
FC Hs6st2 (1450047_PM_at) [3]: −1.75
FC Iigp1 (1419043_PM_a_at) [3]: −1.72
FC Lrp4 (1426288_PM_at) [3]: −1.51
FC Lrrc50 (1421974_PM_at) [3]: 1.53
FC Niacr1 (1419721_PM_at) [3]: −1.91
FC Ptplad2 (1450967_PM_at) [3]: −1.55
FC Rab31 (1431691_PM_a_at) [3]: −1.62
FC Rnf144b (1425282_PM_at) [3]: −1.71
FC Stfa2l1 (1442339_PM_at) [3]: −2.07
FC Stx1a (1437390_PM_x_at) [3]: 1.53
FC Tmem26 (1434583_PM_at) [3]: −1.67
FC Ubn2 (1430056_PM_at) [3]: 1.64
FC Ucp2 (1444566_PM_at) [3]: 1.54
FC Vnn3 (1420723_PM_at) [3]: −1.59
FC probe 1429277_PM_at (no gene symbol) [3]: −1.60
FC probe 1431225_PM_at (no gene symbol) [3]: 1.58
FC probe 1439831_PM_at (no gene symbol) [3]: −1.51
FC probe 1442323_PM_at (no gene symbol) [3]: 1.51
FC probe 1447204_PM_at (no gene symbol) [3]: −1.95
FC probe 1449653_PM_at (no gene symbol) [3]: −1.57
FC probe 1457306_PM_at (no gene symbol) [3]: 2.12
Number of differentially expressed genes identified: Spleen (90 mpk MMF-vs-Vehicle): 42
